Experiment [1] concerns the target T1, GluK2(VCQ)2a (Rattus norvegicus, UniProt P42260, I567V/Y571C). The experiment in a line: calcium-sensitive fluorescence assay. It counts as cell-based.
Experiment [2] has as its target T1, GluK2(VCQ)2a. The experiment in a line: calcium-sensitive fluorescence assay. It counts as cell-based. The conditions noted are these: agonist; with 150 µM BPAM344; Fluo buffer pH 7.4.

pEC50: −log10 of the molar value. Like-named read-outs stand apart in the source and are kept apart here.

Here are results for two compounds from paper doi:10.1101/2023.11.02.565282v1 (biorxiv, 2023).

T1 sequence (P42260 32-908 I567V/Y571C): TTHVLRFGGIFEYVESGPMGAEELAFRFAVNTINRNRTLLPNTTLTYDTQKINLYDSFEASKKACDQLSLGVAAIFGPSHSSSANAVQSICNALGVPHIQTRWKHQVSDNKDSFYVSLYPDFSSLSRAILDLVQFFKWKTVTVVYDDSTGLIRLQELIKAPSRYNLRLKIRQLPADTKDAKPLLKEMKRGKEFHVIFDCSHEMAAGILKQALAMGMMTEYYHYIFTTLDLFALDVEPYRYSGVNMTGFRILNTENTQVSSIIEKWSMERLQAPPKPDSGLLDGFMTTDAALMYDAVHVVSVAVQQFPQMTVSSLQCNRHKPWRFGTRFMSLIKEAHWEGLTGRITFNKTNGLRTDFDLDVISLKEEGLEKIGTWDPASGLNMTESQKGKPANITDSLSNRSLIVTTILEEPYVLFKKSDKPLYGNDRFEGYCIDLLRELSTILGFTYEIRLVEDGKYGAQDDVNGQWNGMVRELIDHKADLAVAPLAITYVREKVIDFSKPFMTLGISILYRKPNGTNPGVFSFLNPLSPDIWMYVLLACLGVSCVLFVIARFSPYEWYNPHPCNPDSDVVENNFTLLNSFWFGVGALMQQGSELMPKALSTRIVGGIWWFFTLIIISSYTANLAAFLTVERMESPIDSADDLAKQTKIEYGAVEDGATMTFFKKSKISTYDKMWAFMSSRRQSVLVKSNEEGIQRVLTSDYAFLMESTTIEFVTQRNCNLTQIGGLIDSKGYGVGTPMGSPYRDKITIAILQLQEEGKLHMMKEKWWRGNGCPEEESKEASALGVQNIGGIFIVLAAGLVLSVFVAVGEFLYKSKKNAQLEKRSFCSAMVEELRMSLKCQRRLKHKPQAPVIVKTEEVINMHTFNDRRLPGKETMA

Consider `O=S1(=O)NCN(C2CC2)c2ccc(F)cc21` [BPAM344], for which the pEC50 (usually the EC50 on a negative log10 scale, so that one unit is a factor of ten) at GluK2(VCQ)2a [1] is 4.12.

For `C/C(=C/C=C/[C@@H](C)C(=O)O)[C@H]1CN[C@H](C(=O)O)[C@H]1CC(=O)O` [domoate], the negative-log EC50 (pEC50) at GluK2(VCQ)2a [2] was 5.88.
